Assay results taken from US20030156970A1, “Sulphur-free lignin and derivatives thereof for reducing the formation of slime and deposits in industrial plants” (priority 2000, published 2003).

Tested on: slime and deposits in paper machine white water
Test: Slime and deposit formation in white water tanks, same test record as example 10 (example 12, lignin plus small quantity of biocide)
Design: species or system bacteria
From the text: The white water originated from the white water I circuit of a paper machine which produces wood-free paper with carbonate filler, used painted rejects and starch for the production of the stock and runs at a slightly alkaline pH. The white water was sampled after a re-start, before any slime combating systems were used. […] Seven tanks were filled with the white water up to the 5-litre mark, the magnetic agitators were switched on, as well as the thermostatically controlled heating systems which were set to 36° C. Weighed slime measuring boards were fully immersed in the liquid. The microbial activity in the test tanks was checked by plating out on bacterial count-Agar from the company of Merck. The additions to the slime check to be compared were diluted in a suitable way and a certain quantity was added to each test tank. After 72 hours the bacterial counts were determined again and the measuring boards covered in slime were carefully weighed. After the measurements after 72 hours the slime measur8ing boards were dried at 105° C. and again weighed in order to determine the dry weight of the stored material. The dried material was then removed from the boards and incinerated in a furnace in porcelain crucibles at 550° C. The ash was weighed back in order to measure the percentage of mineral substances in the original deposits. The whole experiment was repeated with various concentrations of the individual slime combating products.
The same test record as in example 10 was followed, however using the following products

[1] = 70 ppm active (combination 50 + 20), 72 hrs

Structure (SMILES): O=[N+]([O-])C(Br)(CO)CO [bromiumnitropropane diol, 2-bromium-2-nitropropane-1,3-diol]
- Ash content in deposits in % of the solids content of the control [1]: 17%
- Dry weight of the deposit [1]: 1.026 g
- Moist weight of the deposit [1]: 1.020 g
- Solids content in deposit [1]: 12%
- Solids content in deposits in % of the control (70 ppm active (combination 50 + 20), 72 hrs, control = 100): 23%
- Bacterial count after 72 hrs (addition (active) 70 ppm per volume (combination 50 + 20 ppm), white water 4.7 g/l solids, start count 4.2 × 10^5): 8.1 × 10^4 CFU/ml
